We go through eleven molecules from ChEMBL document CHEMBL1201862, “PubChem BioAssay data set” (2004).

Among the test systems are NCI-H460; COLO 205; EKVX; SK-MEL-28; SN12C; HCT-116; CAKI-1; MCF7; SF-268; MDA-MB-435; UO-31; SF-539; OVCAR-8; HOP-62; MDA-MB-231; OVCAR-4; RXF 393; SNB-19; NCI-H522; SR.
Experiment in all cases: NCI tumour cell line growth inhibition, 48 h

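Dose response: 5 concentrations. Exposure: 48 h. Format: 96-well plates. Endpoint: linear interpolation; highest concentration if not reached. GI50 = concentration required for 50% inhibition of growth.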 Active and inactive are the calls of the source. Rule as the data show it: active = GI50 up to about 1.1 µM and inactive = higher.

`O=C(NC1CCCCC1)c1nn[nH]c1Cl`: the GI50 in the assay on NCI-H460, with COLO 205, in the assay with EKVX, with SK-MEL-28, in the assay with SN12C and in the assay with HCT-116 was > 100 µM (inactive) each time. Besides, the GI50 in the assay with CAKI-1, with MCF7, in the assay with SF-268, in the assay with MDA-MB-435, in the assay with UO-31 and in the assay on SF-539 was > 100 µM (inactive) in each case. The GI50 with OVCAR-8, in the assay on HOP-62, in the assay with MDA-MB-231, in the assay with OVCAR-4, in the assay with RXF 393 and with SNB-19 was > 100 µM (inactive) throughout.
With `COP(=O)(/C=C/C(NC(=O)C(Cl)(Cl)Cl)c1ccccc1)OC` (centres undefined), the GI50 with NCI-H460, in the assay on COLO 205, in the assay on EKVX, with SK-MEL-28, in the assay on SN12C and with HCT-116 was > 100 µM (inactive) throughout. The GI50 in the assay on CAKI-1, with MCF7, in the assay on SF-268, with MDA-MB-435, with UO-31 and in the assay with OVCAR-8 was > 100 µM (inactive) throughout. For the same molecule, the GI50 with HOP-62, in the assay with MDA-MB-231, in the assay with OVCAR-4, with NCI-H522, in the assay on RXF 393 and in the assay on SNB-19 was > 100 µM (inactive) throughout.
Turning to `CC(=O)OC12c3ccccc3C(c3ccccc31)C1C(=O)N(N=C(C)C)C(=O)C12` (centres undefined), the GI50 with COLO 205, in the assay with EKVX, in the assay with SK-MEL-28, in the assay with SN12C, in the assay on HCT-116 and in the assay with CAKI-1 was > 100 µM (inactive) throughout. Further, the GI50 in the assay on MCF7, in the assay with SF-268, with UO-31, in the assay on SF-539, in the assay on OVCAR-8 and with HOP-62 was > 100 µM (inactive) in each case. Also, the GI50 in the assay on MDA-MB-231, with OVCAR-4, in the assay on SR, in the assay with RXF 393 and in the assay on SNB-19 was > 100 µM (inactive) each time.
`CC(=O)/C(=C/N1CC(=O)NC1=S)C(=O)Nc1ccccc1C`: the GI50 with NCI-H460, with COLO 205, in the assay with EKVX, with SK-MEL-28, with SN12C and in the assay on HCT-116 was > 100 µM (inactive) each time. Moreover, the GI50 in the assay with CAKI-1, in the assay on SF-268, in the assay with MDA-MB-435, with UO-31, with SF-539 and with OVCAR-8 was > 100 µM (inactive) in each case. Also, the GI50 with HOP-62, with MDA-MB-231, in the assay with OVCAR-4, in the assay on RXF 393 and with SNB-19 was > 100 µM (inactive) throughout.
As for `CCOc1ccc(/C=C2\NC(=S)N(/C=C3\C(=O)Oc4ccccc4C3=O)C2=O)cc1`, the GI50 in the assay with NCI-H460 was 21.4 µM (inactive); with COLO 205, 15.2 µM (inactive); in the assay on EKVX, 24.7 µM (inactive); in the assay on SK-MEL-28 it was 36.8 µM (inactive); in the assay on SN12C, 19.7 µM (inactive); in the assay with HCT-116 it was 19.5 µM (inactive). The GI50 with CAKI-1 is 23.9 µM (inactive); in the assay with MCF7 it was 17.8 µM (inactive); in the assay on SF-268, 22.2 µM (inactive); with MDA-MB-435, 28.8 µM (inactive); in the assay with UO-31, 24.1 µM (inactive); with SF-539, 16.3 µM (inactive). For the same molecule, the GI50 in the assay with OVCAR-8 is 19.4 µM (inactive); in the assay on HOP-62, 26.1 µM (inactive); in the assay on MDA-MB-231, 20.4 µM (inactive); in the assay with OVCAR-4 it was 28.1 µM (inactive); with NCI-H522, 20.7 µM (inactive); in the assay on RXF 393 it was 3.84 µM (inactive). For the same molecule, the GI50 in the assay with SNB-19 was 22.8 µM (inactive).
For the molecule `Cc1c(O)c(C)c2c(C)cn(C(=O)C(C)(C)C)c2c1C`, the GI50 in the assay on NCI-H460 is 29.5 µM (inactive); in the assay on COLO 205, 16.6 µM (inactive); in the assay with EKVX, 20 µM (inactive); in the assay on SK-MEL-28 it was 15.3 µM (inactive); with SN12C, 17.9 µM (inactive); with HCT-116, 21 µM (inactive). The GI50 with MCF7 was 3.27 µM (inactive); with SF-268, 31.4 µM (inactive); in the assay with MDA-MB-435 it was 16.5 µM (inactive); with UO-31, 27.9 µM (inactive); in the assay with SF-539, 16.4 µM (inactive); in the assay with OVCAR-8, 20.1 µM (inactive). Moreover, the GI50 is 17.5 µM (inactive) with HOP-62; 15.2 µM (inactive) in the assay on MDA-MB-231; 12.6 µM (inactive) with OVCAR-4; 23.7 µM (inactive) in the assay with NCI-H522; 12.4 µM (inactive) in the assay on RXF 393; 24.8 µM (inactive) in the assay with SNB-19.
For the molecule `O=C(/C=C/c1ccccc1)CCC1C(=O)NC(=O)NC1=O`, the GI50 in the assay with NCI-H460, in the assay on COLO 205, in the assay on EKVX, in the assay on SK-MEL-28, with SN12C and in the assay with HCT-116 was > 100 µM (inactive) each time. For the same molecule, the GI50 in the assay with CAKI-1, in the assay with MCF7, with SF-268, in the assay on MDA-MB-435, with UO-31 and with SF-539 was > 100 µM (inactive) throughout. Besides, the GI50 in the assay with OVCAR-8, with MDA-MB-231, with OVCAR-4, with NCI-H522 and in the assay with SNB-19 was > 100 µM (inactive) in each case.
With `CC(=N/NC(=S)N1CCCCC1)/C(C)=N\NC(=S)N1CCCCC1`, the GI50 was 1.74 µM (inactive) with NCI-H460; 1.95 µM (inactive) in the assay with COLO 205; 1.63 µM (inactive) in the assay on EKVX; 2.08 µM (inactive) in the assay with SK-MEL-28; 1.69 µM (inactive) with SN12C; 2.34 µM (inactive) with HCT-116. For the same molecule, the GI50 is 1.71 µM (inactive) in the assay with CAKI-1; 1.91 µM (inactive) with MCF7; 1.67 µM (inactive) in the assay on SF-268; 1.87 µM (inactive) in the assay with MDA-MB-435; 1.59 µM (inactive) in the assay with UO-31; 2.35 µM (inactive) with SF-539. Moreover, the GI50 was 2.12 µM (inactive) in the assay on OVCAR-8; 1.79 µM (inactive) with HOP-62; 2 µM (inactive) in the assay on MDA-MB-231; 1.74 µM (inactive) in the assay with OVCAR-4; 2.09 µM (inactive) in the assay on NCI-H522; 1.59 µM (inactive) in the assay on RXF 393. The GI50 in the assay on SNB-19 is 1.88 µM (inactive).
Take `COC(=O)c1c(C)cccc1C1CN=NC12Cc1cccc(C)c1C2=O` (centres undefined): the GI50 in the assay with NCI-H460 is 12.6 µM (inactive); in the assay with COLO 205 it was 42.7 µM (inactive); in the assay with EKVX, 32 µM (inactive); in the assay with SK-MEL-28, 29.6 µM (inactive); in the assay on SN12C it was 27.2 µM (inactive); in the assay on HCT-116, 28 µM (inactive). For the same molecule, the GI50 in the assay with CAKI-1 was 37.7 µM (inactive); in the assay with MCF7 it was 30.8 µM (inactive); in the assay on SF-268 it was 83.4 µM (inactive); with MDA-MB-435, 31.1 µM (inactive); in the assay on UO-31, 14.4 µM (inactive); in the assay with SF-539 it was 22.8 µM (inactive). The GI50 with OVCAR-8 was 33.9 µM (inactive); with HOP-62, 53.6 µM (inactive); in the assay on OVCAR-4 it was 23.9 µM (inactive); in the assay with SR it was 26.7 µM (inactive); in the assay on NCI-H522, 15.9 µM (inactive); in the assay on RXF 393, 30.5 µM (inactive). Also, the GI50 in the assay on SNB-19 was 48.8 µM (inactive).
`Cc1ccc(-c2n[nH]c(=O)[nH]2)cc1[N+](=O)[O-]`: the GI50 was > 100 µM (inactive) with NCI-H460; > 100 µM (inactive) in the assay on COLO 205; 0.643 µM (active) with EKVX; > 100 µM (inactive) in the assay with SK-MEL-28; > 100 µM (inactive) in the assay with SN12C; > 100 µM (inactive) in the assay on HCT-116. The GI50 with CAKI-1 was > 100 µM (inactive); with MCF7, > 100 µM (inactive); in the assay with SF-268, > 100 µM (inactive); in the assay with MDA-MB-435, > 100 µM (inactive); in the assay on UO-31, 27.5 µM (inactive); with SF-539, > 100 µM (inactive). Further, the GI50 in the assay on OVCAR-8, in the assay with HOP-62, in the assay on OVCAR-4, with SR, in the assay with NCI-H522 and with RXF 393 was > 100 µM (inactive) in each case. Further, the GI50 in the assay with SNB-19 was > 100 µM (inactive).
On to `COc1cc(OC)c2c3c(OC)cc(OC)c4c(=O)c(O)c(C[C@@H](C)O)c(c5c(C[C@@H](C)O)c(O)c(=O)c1c25)c43`, for which the GI50 with NCI-H460 was 27.2 µM (inactive); in the assay on COLO 205, 3.72 µM (inactive); in the assay with EKVX, 32.4 µM (inactive); with SK-MEL-28 it was 20.1 µM (inactive); in the assay on SN12C it was 24.5 µM (inactive); in the assay on HCT-116, 16 µM (inactive). Besides, the GI50 with CAKI-1 was 18.8 µM (inactive); with MCF7, 21.2 µM (inactive); with SF-268, 18.9 µM (inactive); with MDA-MB-435 it was 16.6 µM (inactive); with UO-31 it was 30.7 µM (inactive); in the assay on SF-539, 24.8 µM (inactive). For the same molecule, the GI50 in the assay with OVCAR-8 is 19.8 µM (inactive); in the assay on HOP-62, 22.4 µM (inactive); in the assay on MDA-MB-231, 1.89 µM (inactive); in the assay on OVCAR-4, 30.5 µM (inactive); in the assay on RXF 393, 22.4 µM (inactive); in the assay on SNB-19, 57.5 µM (inactive).
